Reference: US5763441A, “Compounds for the treatment of disorders related to vasculogenesis and/or angiogenesis” (Sugen, Inc., priority 1995, dated 1998)
Read-outs that look alike come from different tables or passages of the source.

Molecular target: T1, FLK-1 receptor (Mus musculus, UniProt P35918)
T1 construct: expressed in transfected cells; host or cells: NIH3T3C7#3 cells (FLK-1 infected NIH3T3)
Test: ELISA assay to measure kinase activity of FLK-1 receptor in FLK-1/NIH cells
Format: cell-based, murine
Procedure: ELISA Assay To Measure Kinase Activity Of FLK-1 Receptor In FLK-1/NIH Cells
An ELISA assay was conducted to measure the kinase activity of the FLK-1 receptor and more specifically, the inhibition or activiation of protein tyrosine kinase activity on the FLK-1 receptor.
k. NIH3T3C7#3 Cells (FLK-1 infected cells);
Protocol. The following protocol was used to conduct the ELISA Assay:
1. Coat Corning 96-well elisa plates with 1.0 ug per well Cappel Anti-rabbit IgG antibody in 0.1M Na2CO3 pH 9.6. Bring final volume to 150 ul per well. Coat plates overnight at 4° C. Plates can be kept up to two weeks when stored at 4° C.
2. Grow cells in 30 ml of Growth media 9DMEM. 2.0 mM L-Glutamine, 10% FBS) until confluent in 150 cm tissue culture dishes at 37° C., 5% CO2.
3. Harvest cells by tyrpsination and seed in Corning 25850 polystyrene 96-well roundbottom cell plates, 25.000 cells/well in 200 uL of growth media.
4. Grow cells at least one day at 37° C., 5% CO2.
5. Wash cells with D-PBS 1X.
6. Add 200 ul/well of starvation media (DMEM, 2.0 mM l-Glutamine, 0.1% FBS). Incubate overnight at 37° C., 5% CO2.
7. Dilute Compounds/Extracts 1:20 in polyproplyene 96 well plates using starvation media. Dilute dimethylsulfoxide 1:20 for use in control wells.
8. Remove starvation media from 96 well cell culture plates and add 162 ul of fresh starvation media to each well.
9. Add 18 ul of 1:20 diluted Compound/Extract dilution (from step #7) to each well plus the 1:20 dimethylsulfoxide dilution to the control wells (+/-VEGF), for a final dilution of 1:200 after cell stimulation. Final dimethylsulfoxide is 0.5%. Incubate the plate at 37° C., 5% CO2 for two hours.
10. Remove unbound antibody from Elisa plates by inverting plate to remove liquid. Wash 3 times with TBSW+0.5% Ethanolamine, pH 7.0. Pat the plate on a paper towel to remove excess liquid and bubbles.
11. Block plates with TBSW+0.5% Ethanolamine, pH 7.0. 150 ul per well. Incubate plate thirty minutes while shaking on a microtiter plate shaker.
12. Wash plate 3 times as described in step 10.
13. Add 0.5 ug/well affinity purified anti-flk-1 polyclonal rabbit antiserum. Bring final volume to 150 ul/well with TBSW+0.5k Ethanolamine pH 7.0. Incubate plate for thirty minutes while shaking.
14. Add 180 μl starvation medium to the cells and stimulate cells with 20 ul/well 10.0 mM Sodium Ortho Vanadate and 500 ng/ml VEGF (resulting in a final concentration of 1.0 mM Sodium Ortho Vanadate and 50 ng/ml VEGF per well) for eight minutes at 37° C., 5% CO2. Negative control wells receive only starvation medium.
15. After eight minutes, media are removed from the cells and washed one time with 200 ul/well PBS.
16. Lyse cells in 150 ul/well HNTG while shaking at room temperature for five minutes. HNTG formulation includes sodium ortho vanadate, sodium pyro phosphate and EDTA.
17. Wash Elisa plate three times as described in step 10.
18. Transfer cell lysates from the cell plate to elisa plate and incubate while shaking for two hours. To transfer cell lysate pipette up and down while scrapping the wells.
19. Wash plate three times as described in step 10.
20. Incubate Elisa plate with 0.02 ug/well UB40 in TBSW+05% ethanolamine. Bring final volume to 150 ul/well. Incubate while shaking for 30 minutes.
21. Wash plate three times as described in step 10.
22. Incubate elisa plate with 1:10,000 diluted EIA grade Goat anti-mouse IgG conjugated horseradish peroxidase in TBSW+0.5% ethanolamine, pH 7.0. Bring final volume to 150 ul/well. Incubate while shaking for thirty minutes.
23. Wash plate as described in step 10.
24. Add 100 ul of ABTS/H202 solution to well. Incubate ten minutes while shaking.
25. Add 100 ul of 0.2M HCL for 0.1M HCL final to stop the colordevelopment reaction. Shake 1 minute at room temperature. Remove bubbles with slow stream of air and read the ELISA plate in an ELISA plate reader at 410 nm.

[1] = FLK-1R ELISA, VEGF-stimulated FLK-1/NIH cells

T1 sequence (P35918 20-1345): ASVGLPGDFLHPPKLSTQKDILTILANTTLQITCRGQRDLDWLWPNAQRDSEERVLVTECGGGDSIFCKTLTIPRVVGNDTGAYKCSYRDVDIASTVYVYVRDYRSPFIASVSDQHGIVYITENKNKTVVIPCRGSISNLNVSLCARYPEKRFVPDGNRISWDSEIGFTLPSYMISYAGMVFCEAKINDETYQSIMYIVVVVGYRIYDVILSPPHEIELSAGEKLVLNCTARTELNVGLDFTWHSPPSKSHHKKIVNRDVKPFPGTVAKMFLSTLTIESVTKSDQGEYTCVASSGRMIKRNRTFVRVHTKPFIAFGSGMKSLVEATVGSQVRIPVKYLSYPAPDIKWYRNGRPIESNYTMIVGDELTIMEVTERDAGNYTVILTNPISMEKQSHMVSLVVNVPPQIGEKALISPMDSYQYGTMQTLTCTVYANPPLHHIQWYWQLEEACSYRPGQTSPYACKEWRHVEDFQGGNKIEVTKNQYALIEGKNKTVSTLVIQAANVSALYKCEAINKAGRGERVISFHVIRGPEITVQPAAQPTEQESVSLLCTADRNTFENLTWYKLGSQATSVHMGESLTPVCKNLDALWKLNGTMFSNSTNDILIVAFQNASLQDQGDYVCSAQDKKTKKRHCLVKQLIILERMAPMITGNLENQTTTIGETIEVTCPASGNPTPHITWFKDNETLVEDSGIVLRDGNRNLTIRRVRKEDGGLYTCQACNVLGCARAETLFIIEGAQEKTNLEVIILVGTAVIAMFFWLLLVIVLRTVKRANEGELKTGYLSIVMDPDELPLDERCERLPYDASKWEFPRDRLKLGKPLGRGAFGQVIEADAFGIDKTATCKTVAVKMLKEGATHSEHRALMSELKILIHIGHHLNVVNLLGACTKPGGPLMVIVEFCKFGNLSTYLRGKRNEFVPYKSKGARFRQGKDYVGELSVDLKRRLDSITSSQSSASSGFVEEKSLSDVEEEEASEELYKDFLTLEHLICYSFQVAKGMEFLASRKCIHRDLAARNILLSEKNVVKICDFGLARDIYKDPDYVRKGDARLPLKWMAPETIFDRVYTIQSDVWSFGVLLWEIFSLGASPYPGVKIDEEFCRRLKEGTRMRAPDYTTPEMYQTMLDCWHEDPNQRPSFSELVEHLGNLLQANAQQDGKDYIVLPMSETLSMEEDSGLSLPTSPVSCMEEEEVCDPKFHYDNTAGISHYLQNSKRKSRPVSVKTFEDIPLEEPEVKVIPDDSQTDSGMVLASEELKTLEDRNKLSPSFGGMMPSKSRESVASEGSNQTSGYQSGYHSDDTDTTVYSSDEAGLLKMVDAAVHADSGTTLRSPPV

Structure (SMILES) | IC50 [µM] | also measured
Cc1cc2ncc(Nc3ccc(I)cc3)nc2cc1C [Compound 13, 2-[(4-iodophenyl)amino]-6,7-dimethyl quinoxaline] | 10.4 | 
COC(=O)c1ccc(NCc2cc(O)ccc2O)cc1 [Compound 24, N-(2,5-dihydroxylbenzyl)-4-methoxycarbonylaniline] | 28.9 | 
N#C/C(=C\c1ccc(O)c(O)c1)C(=O)NCCCCNC(=O)/C(C#N)=C/c1ccc(O)c(O)c1 [Compound 8, (E,E)-2-[[4-[[1-cyano-2-(3,4-dihydroxyphenyl)ethenyl]carbonylamino]-n-butyl]aminocarbonyl]-3-(3,4-dihydroxyphenyl)acrylonitrile] | 10.8 | 
COc1cc2nc(Cl)nc(Nc3cccc(Cl)c3)c2cc1OC [Compound 21, 2-chloro-4-(3-chlorophenylamino)-6,7-dimethoxyquinazoline] | 9.9 | 
CC1c2nc3ccccc3c(=O)n2C(c2ccc(O)cc2)N1Cc1ccccc1 (stereo not shown) [Compound 27] | 3.4 | 
CC(C)(C)c1cc(/C=C(\C#N)C(N)=S)cc(C(C)(C)C)c1O [Compound 1, (E)-2-aminothiocarbonyl-3 (3,5-di-t-butyl-4-hydroxyphenyl)acrylonitrile] |  | IC50 (FLK-1R ELISA, VEGF-stimulated FLK-1/NIH cells, read-out: IC50): 0.8 µM
Cc1cc2ncc(Nc3ccc(Cl)c(Cl)c3)nc2cc1C [Compound 17, 2-(3,4-dichlorophenylamino)-6,7-dimethylquinoxaline] | 15 | 
Cc1ccc(Sc2ncnc3ccc(C)cc23)cc1 [Compound 20] | 17.8 | 
Cc1ccc2ncnc(Nc3cccc(O)c3)c2c1 [Compound 16, 4-(3-hydroxyphenylamino)-6-methylquinazoline] | 35.1 | 
N#C/C(=C\c1ccc(O)c(O)c1)S(=O)(=O)/C(C#N)=C/c1ccc(O)c(O)c1 [Compound 9] |  | IC50 [1]: 27.4 µM
Oc1cccc(Nc2ncnc3ccccc23)c1 [Compound 18, 4-(3-hydroxyphenylamino)-quinazoline] | 34.6 | 
CC(C)c1cc(/C=C(\C#N)C(=S)NCCCc2ccccc2)cc(C(C)C)c1O [Compound 11, (E)-2-[3-phenyl-n-propylaminothiocarbonyl]-3-(3,5-diisopropyl-4-hydroxyphenyl)acrylonitrile] | 9.8 | 
N#C/C(=C\c1cc(O)c(O)c(I)c1)C(=O)NCCCc1ccccc1 [Compound 3] |  | IC50 [1]: 4.9 µM
N#C/C(=C\c1ccc2[nH]ccc2c1)C(=O)c1ccc(O)c(O)c1 [Compound 10, (E)-3-(indol-5-yl)-2-(3,4-dihydroxyphenylcarbonyl)acrylonitrile] | 17.7 | 
N#CCS(=O)(=O)/C(C#N)=C/c1cc(O)c(O)c(Br)c1 [Compound 26, (E)-2-cyanomethylsufonyl-3-(3-bromo-4,5-dihydroxyphenyl)acrylonitrile] | 11 | 
CCCNc1nc2ccccc2nc1Cl [Compound 19, 2-(n-propylamino)-3-chloroquinoxaline] | 25.6 | 
N#C/C(=C\c1ccc(O)c(O)c1)C(=O)NCCNC(=O)/C(C#N)=C/c1ccc(O)c(O)c1 [Compound 7] |  | IC50 [1]: 37.5 µM
N#CC(C#N)=NNc1cccc(Cl)c1 [Compound 22] | 2.3 | 
Cc1cc2ncc(Nc3cccc(Cl)c3)nc2cc1C [Compound 28, 2-(3-chlorophenylamino)-6,7-dimethylquinoxaline] | 16 | 
N#CC(C(=O)Nc1cccc(C(F)(F)F)c1)C(=S)Nc1ccccc1Cl (stereo not shown) [Compound 25, N-(2-chlorophenyl)-2-cyano-2-(N-3-trifluorophenylamino-carbonyl)-thioacetamide] | 8.5 | 
Cc1cc2ncc(-c3ccc(O)c(O)c3)nc2cc1C [Compound 14, 2-(3,4-dihydroxyphenyl) -6,7-dimethylquinoxaline] | 9.3 | 
N#C/C(=C\c1cc(O)c(O)c(I)c1)C(=O)NCc1ccccc1 [Compound 6, (E)-2-(benzylaminocarbonyl)-3-(3-iodo-4,5-dihydroxyphenyl)acrylonitrile] | 21.2 | 
